According to PMC6100056, “Antitumor Effects and Delivery Profiles of Menahydroquinone-4 Prodrugs with Ionic or Nonionic Promoiety to Hepatocellular Carcinoma Cells” (Molecules : A Journal of Synthetic Chemistry and Natural …, 2018):
Where a name gives a salt, the structure may show the parent alone.

Assays:
[1] = system: PLC/PRF/5 cells; experiment: MKH delivery into HCC cells: intracellular MKO and MK-4 concentration-time profiles; assay type: in vitro ADME; conditions: dose 25 μM, trapezoidal rule
From the text: (§1) When assessing the delivery of MKH into HCC cells by MKH-ester prodrugs, although the MKH levels in HCC cells should be quantified, it is difficult to determine an accurate MKH level owing to its rapidly oxidative characteristics to MK-4. Concomitant with γ-carboxylation in producing of vitamin K-dependent proteins, MKH is stoichiometrically converted to MK-4 epoxide (MKO), as shown in Figure 1. Thus, MKO levels in HCC cells can reflect the levels of MKH. In addition, the intracellular MK-4 in HCC cells after MKH-DMG treatment is the oxidative product of MKH, which is generated by hydrolysis of MKH-DMG [22]. The estimation rules of MKH in an earlier report were adopted in this study, in which the sum of MKO and MK-4 levels after MKH-ester prodrug treatment was regarded as the MKH level delivered into HCC cells. In MK-4 treatment, the MKH level was assessed by determining the level of MKO.
(§2) MKH delivery into HCC cells with 25 μM MKH-ester derivatives was determined after 1, 3, 6, 12 or 24 h of incubation. […] The AUC0–24h values for MKO (AUCMKO), MK-4 (AUCMK-4) and MKH (AUCMKH) were calculated using the trapezoidal rule (Table 3). […]
(§3) HCC cells were plated at 1.5 × 10^5 cells/well in 6-well plates and allowed to attach for 48 h. […] The protein concentration of the cell homogenate was determined using a BCA protein assay kit. […]

[2] = system: SK-Hep-1 cells; experiment: as above; assay type: in vitro ADME; conditions: dose 25 μM, trapezoidal rule
From the text: as §1, §2, §3

[3] = system: PLC/PRF/5 cells; experiment: Cell viability assay (Cell Titer-Glo); assay type: cell-based; conditions: for IC50: Homo sapiens, 95% confidence interval in square brackets
Experimental: (§4) To assess the effects of MKH-ester prodrugs on HCC cell proliferation, DCP-positive (PLC/PRF/5) and DCP-negative (SK-Hep-1) HCC cell lines were treated with various concentrations of MKH-ACT, MKH-DMG, MKH-SUC or MK-4 up to 96 h, and cell viability was determined.
(§5) Cell viability was determined using a previously reported method. Briefly, PLC/PRF/5 and SK-Hep-1 cells were plated at 5.0 × 10^3 cells/well in 96-well plates and allowed to attach for 48 h. MK-4 and MKH-ACT were dissolved in 99.5% ethanol. MKH-SUC was dissolved in DMSO. MKH-DMG was dissolved in sterilized water. Stock solutions of each drug (50 mM) were diluted to the intended final concentrations with medium. Cells were exposed to MK-4, MKH-ACT, MKH-DMG or MKH-SUC for up to 96 h, and cell viability was evaluated using the Cell Titer-Glo Luminescent Cell Viability Assay (Promega, Madison, WI, USA) according to the manufacturer’s instructions. IC50 values were determined by a log [drug] vs. normalized response-variable slope analysis of GraphPad Prism, version 6.0 (GraphPad Software, San Diego, CA, USA).

[4] = system: SK-Hep-1 cells; experiment: Cell viability assay (Cell Titer-Glo); assay type: cell-based; conditions: for IC50: Homo sapiens, 95% confidence interval in square brackets
Experimental: as §4, §5

[5] = system: cyclin D1 and CDK4 in PLC/PRF/5 cells; experiment: Western blotting of cell cycle regulatory proteins; assay type: cell-based; conditions: 24 h after treatment
Experimental: We previously reported that MKH-DMG regulates cell cycle-related proteins as a mechanism of MKH-DMG-induced growth inhibition in PLC/PRF/5, Hep3B and SK-Hep-1 cells. Thus, to clarify the mechanisms of the growth inhibition induced by the MKH-ester prodrugs, we analyzed cell cycle-related proteins using Western blotting (Figure 7).
HCC cells were plated at 1.5 × 10^5 cells/well in 6-well plates and allowed to attach for 48 h. Cells were treated with MK-4, MKH-ACT, MKH-DMG or MKH-SUC for 24 h. Western blotting was performed as described previously.

[6] = design: method as in PMID 21574174; conditions: clinical dose (45 mg/day) or double dose (90 mg/day); trial in Japan; cited from earlier work

AUC0–24h for MK-4 [1] [nmol·h·mg Protein^−1] | AUC0–24h for MK-4 [2] [nmol·h·mg Protein^−1] | IC50 ([4]; SK-HEP1, 72 h) [µM] | IC50 ([4]; SK-HEP1, 96 h) [µM] | melting point [°C] | Structure (SMILES) | Inhibition of cell viability of the control ([3]; 40–60 μM, 96 h) | IC50 ([3]; 72 h) [µM] | IC50 ([3]; 96 h) [µM] | Inhibition of cell viability of the control ([4]; 60 μM, 72 h) | Inhibition of cell viability of the control ([4]; 60 μM, 96 h) [%] | Inhibition of cell viability of the control ([4]; 20–40 μM, 96 h) [%] | Effect on cyclin D1 and CDK4 expression compared with controls [5] | Effect on cumulative recurrence of HCC [6]
12.2 ± 4.19 | 41.6 ± 9.04 | 80.2 | 88.2 | – | CC(C)=CCC/C(C)=C/CC/C(C)=C/CC/C(C)=C/CC1=C(C)C(=O)c2ccccc2C1=O [MK-4, menaquinone-4, reference compound] | 30–40% | 188 | 86.8 | about 20% | 40 | 20 | did not affect | did not find any statistically significant improvement
– | – | – | – | 179 to 181 | CC(C)=CCC/C(C)=C/CC/C(C)=C/CC/C(C)=C/Cc1c(C)c(OC(=O)CCC(=O)O)c2ccccc2c1OC(=O)CCC(=O)O (as salt: succinate) [MKH-SUC, Menahydroquinone-4 1,4-bis hemisuccinate] | – | – | – | – | – | – | – | –
